Data: ChEMBL document CHEMBL5380830, “Development and Therapeutic Implications of Tyrosine Kinase 2 Inhibitors” (J Med Chem, 2023)
pIC50, pKd: −log10 of the molar value. One block for each molecule: values may come before it.

Experiments:
[1] = target: T1, Non-receptor tyrosine-protein kinase TYK2 (Homo sapiens, UniProt P29597); experiment: Inhibition of TYK2 JH2 (unknown origin) by scintillation proximity assay
[2] = target: T1, Non-receptor tyrosine-protein kinase TYK2; experiment: Inhibition of TYK2 JH2 in human TF-1 cells assessed as reduction of IFNalpha induced STAT1 phosphorylation; format: cell-based
[3] = Inhibition of IL-23 induced STAT phosphorylation in HEK293 cells by Western blotting analysis; format: cell-based; conditions: Homo sapiens
[4] = Inhibition of IFNalpha induced STAT phosphorylation in HEK293 cells by Western blotting analysis; format: cell-based; conditions: Homo sapiens
[5] = target: T1, Non-receptor tyrosine-protein kinase TYK2; experiment: Binding affinity to human wild-type partial length TYK2 JH2 (G556 to D888 residues) expressed in mammalian expression system by KINOMEscan assay
[6] = target: T2, Tyrosine-protein kinase JAK1 (Homo sapiens, UniProt P23458); experiment: Binding affinity to JAK1 JH2 (unknown origin)
[7] = target: T3, Tyrosine-protein kinase JAK2 (Homo sapiens, UniProt O60674); experiment: Inhibition of JAK2 JH1 (unknown origin) at 10 uM relative to control
[8] = target: T1, Non-receptor tyrosine-protein kinase TYK2; experiment: Inhibition of TYK2 JH1 (unknown origin) at 10 uM relative to control
JAK2/TYK2 [9] = target: T4, JAK2/TYK2 (Homo sapiens, UniProt O60674+P29597); experiment: Inhibition of JAK2/TYK2 signal transduction pathway in human PBMC cells assessed as IL-12 induced p-STAT4 level incubated for 30 mins; format: cell-based
JAK2/TYK2 [10] = target: T4, JAK2/TYK2; experiment: Inhibition of JAK2/TYK2 signal transduction pathway in human PBMC cells assessed as reduction in GM-CSF induced p-STAT5 level incubated for 20 mins; format: cell-based
[11] = target: T1, Non-receptor tyrosine-protein kinase TYK2; experiment: Inhibition of TYK2 in HEK-Blue IL-23 cells assessed as reduction in SEAP reporter gene expression by Quanti-blue assay; format: cell-based
[12] = Inhibition of IFNalpha induced STAT phosphorylation in human whole blood by fluorescence based analysis; format: tissue-based
[13] = target: T2, Tyrosine-protein kinase JAK1; experiment: Inhibition of human recombinant JAK1 preincubated for 15 mins followed by substrate addition measured after 60 mins by HTRF assay
[14] = target: T3, Tyrosine-protein kinase JAK2; experiment: Inhibition of human recombinant JAK2 preincubated for 15 mins followed by substrate addition measured after 60 mins by HTRF assay
[15] = target: T5, Tyrosine-protein kinase JAK3 (Homo sapiens, UniProt P52333); experiment: Inhibition of human recombinant JAK3 preincubated for 15 mins followed by substrate addition measured after 60 mins by HTRF assay
T5 sequence (P52333 whole entry): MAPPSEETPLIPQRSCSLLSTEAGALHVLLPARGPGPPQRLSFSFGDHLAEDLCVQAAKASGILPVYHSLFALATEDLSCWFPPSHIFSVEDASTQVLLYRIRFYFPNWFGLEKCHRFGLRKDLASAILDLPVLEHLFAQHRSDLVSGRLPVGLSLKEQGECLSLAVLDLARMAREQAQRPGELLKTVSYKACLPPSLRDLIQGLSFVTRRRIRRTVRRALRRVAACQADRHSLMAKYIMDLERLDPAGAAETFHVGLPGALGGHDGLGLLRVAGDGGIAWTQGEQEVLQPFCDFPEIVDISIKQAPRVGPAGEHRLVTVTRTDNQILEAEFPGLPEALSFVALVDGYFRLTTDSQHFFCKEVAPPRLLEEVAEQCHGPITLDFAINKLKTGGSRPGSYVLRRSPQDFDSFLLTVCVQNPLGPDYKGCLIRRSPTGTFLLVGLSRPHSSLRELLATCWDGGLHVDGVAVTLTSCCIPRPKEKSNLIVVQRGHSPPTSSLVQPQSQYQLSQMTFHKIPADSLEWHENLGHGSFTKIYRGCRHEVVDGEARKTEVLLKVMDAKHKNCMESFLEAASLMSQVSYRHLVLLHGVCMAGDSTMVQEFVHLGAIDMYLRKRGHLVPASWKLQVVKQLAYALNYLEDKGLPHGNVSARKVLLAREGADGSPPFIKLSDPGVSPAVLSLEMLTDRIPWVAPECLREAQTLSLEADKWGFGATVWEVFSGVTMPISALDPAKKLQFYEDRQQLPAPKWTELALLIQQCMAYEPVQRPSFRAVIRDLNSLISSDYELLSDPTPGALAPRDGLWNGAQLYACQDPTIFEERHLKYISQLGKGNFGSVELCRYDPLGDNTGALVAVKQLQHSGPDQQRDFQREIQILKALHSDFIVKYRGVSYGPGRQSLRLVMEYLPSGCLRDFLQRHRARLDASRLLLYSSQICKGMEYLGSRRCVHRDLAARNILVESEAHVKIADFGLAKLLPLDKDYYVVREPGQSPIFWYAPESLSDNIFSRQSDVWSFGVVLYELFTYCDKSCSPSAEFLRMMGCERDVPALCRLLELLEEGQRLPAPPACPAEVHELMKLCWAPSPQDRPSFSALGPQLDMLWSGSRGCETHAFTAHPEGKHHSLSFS

[16] = target: T1, Non-receptor tyrosine-protein kinase TYK2; experiment: Inhibition of human recombinant TYK2 preincubated for 15 mins followed by substrate addition measured after 60 mins by HTRF assay
JAK2/TYK2 [17] = target: T4, JAK2/TYK2; experiment: Inhibition of JAK2/TYK2 signal transduction pathway in human NK92 cells assessed as […] induced IFNgamma expression incubated for 24 hrs by ELISA assay; format: cell-based
[18] = target: T1, Non-receptor tyrosine-protein kinase TYK2; experiment: Binding affinity to TYK2 JH2 (unknown origin)
[19] = target: T1, Non-receptor tyrosine-protein kinase TYK2; experiment: Inhibition of TYK2 signal transduction pathway in human PBMC cells assessed as IFNalpha induced p-STAT5 level; format: cell-based
[20] = target: T1, Non-receptor tyrosine-protein kinase TYK2; experiment: Inhibition of TYK2 JH2 in human KIT225 cells assessed as reduction of IFNalpha induced STAT1 phosphorylation by AlphaLISA assay; format: cell-based
[21] = target: T3, Tyrosine-protein kinase JAK2; experiment: Binding affinity to JAK2 JH1 (unknown origin)
[22] = target: T1, Non-receptor tyrosine-protein kinase TYK2; experiment: Inhibition of TYK2 signal transduction pathway in human PBMC cells assessed as reduction in GM-CSF induced p-STAT5 level; format: cell-based
[23] = target: T1, Non-receptor tyrosine-protein kinase TYK2; experiment: Inhibition of TYK2 signal transduction pathway in human PBMC cells assessed as IL-2 induced p-STAT5 level; format: cell-based

T2 sequence (P23458 whole entry): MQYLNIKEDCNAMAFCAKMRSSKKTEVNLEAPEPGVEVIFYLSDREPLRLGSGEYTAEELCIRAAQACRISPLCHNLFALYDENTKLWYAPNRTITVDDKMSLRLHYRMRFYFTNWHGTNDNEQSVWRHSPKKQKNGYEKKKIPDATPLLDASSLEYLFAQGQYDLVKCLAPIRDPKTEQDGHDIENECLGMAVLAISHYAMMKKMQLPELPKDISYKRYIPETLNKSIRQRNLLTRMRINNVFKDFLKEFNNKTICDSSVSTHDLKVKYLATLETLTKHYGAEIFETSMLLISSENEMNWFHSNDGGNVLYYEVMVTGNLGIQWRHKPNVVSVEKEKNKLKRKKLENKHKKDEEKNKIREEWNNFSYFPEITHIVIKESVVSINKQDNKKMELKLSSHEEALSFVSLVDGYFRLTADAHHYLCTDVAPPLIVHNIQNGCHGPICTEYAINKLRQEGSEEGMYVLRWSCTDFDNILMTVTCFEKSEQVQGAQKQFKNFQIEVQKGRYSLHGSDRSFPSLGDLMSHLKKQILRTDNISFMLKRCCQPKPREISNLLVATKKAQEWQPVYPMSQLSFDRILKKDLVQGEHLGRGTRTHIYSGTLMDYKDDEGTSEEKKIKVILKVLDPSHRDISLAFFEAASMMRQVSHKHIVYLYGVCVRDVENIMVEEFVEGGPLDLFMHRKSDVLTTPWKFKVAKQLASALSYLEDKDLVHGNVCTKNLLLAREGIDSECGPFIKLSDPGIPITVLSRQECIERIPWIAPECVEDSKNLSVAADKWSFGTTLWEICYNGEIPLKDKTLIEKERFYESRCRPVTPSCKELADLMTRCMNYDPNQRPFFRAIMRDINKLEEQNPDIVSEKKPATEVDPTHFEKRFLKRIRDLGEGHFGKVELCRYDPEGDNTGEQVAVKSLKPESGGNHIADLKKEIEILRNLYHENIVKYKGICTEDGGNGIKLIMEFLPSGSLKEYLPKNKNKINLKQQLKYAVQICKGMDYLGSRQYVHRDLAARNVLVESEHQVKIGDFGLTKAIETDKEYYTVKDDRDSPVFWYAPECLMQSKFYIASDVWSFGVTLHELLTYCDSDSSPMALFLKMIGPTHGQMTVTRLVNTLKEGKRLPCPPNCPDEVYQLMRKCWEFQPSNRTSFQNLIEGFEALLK
T1 sequence (P29597 whole entry): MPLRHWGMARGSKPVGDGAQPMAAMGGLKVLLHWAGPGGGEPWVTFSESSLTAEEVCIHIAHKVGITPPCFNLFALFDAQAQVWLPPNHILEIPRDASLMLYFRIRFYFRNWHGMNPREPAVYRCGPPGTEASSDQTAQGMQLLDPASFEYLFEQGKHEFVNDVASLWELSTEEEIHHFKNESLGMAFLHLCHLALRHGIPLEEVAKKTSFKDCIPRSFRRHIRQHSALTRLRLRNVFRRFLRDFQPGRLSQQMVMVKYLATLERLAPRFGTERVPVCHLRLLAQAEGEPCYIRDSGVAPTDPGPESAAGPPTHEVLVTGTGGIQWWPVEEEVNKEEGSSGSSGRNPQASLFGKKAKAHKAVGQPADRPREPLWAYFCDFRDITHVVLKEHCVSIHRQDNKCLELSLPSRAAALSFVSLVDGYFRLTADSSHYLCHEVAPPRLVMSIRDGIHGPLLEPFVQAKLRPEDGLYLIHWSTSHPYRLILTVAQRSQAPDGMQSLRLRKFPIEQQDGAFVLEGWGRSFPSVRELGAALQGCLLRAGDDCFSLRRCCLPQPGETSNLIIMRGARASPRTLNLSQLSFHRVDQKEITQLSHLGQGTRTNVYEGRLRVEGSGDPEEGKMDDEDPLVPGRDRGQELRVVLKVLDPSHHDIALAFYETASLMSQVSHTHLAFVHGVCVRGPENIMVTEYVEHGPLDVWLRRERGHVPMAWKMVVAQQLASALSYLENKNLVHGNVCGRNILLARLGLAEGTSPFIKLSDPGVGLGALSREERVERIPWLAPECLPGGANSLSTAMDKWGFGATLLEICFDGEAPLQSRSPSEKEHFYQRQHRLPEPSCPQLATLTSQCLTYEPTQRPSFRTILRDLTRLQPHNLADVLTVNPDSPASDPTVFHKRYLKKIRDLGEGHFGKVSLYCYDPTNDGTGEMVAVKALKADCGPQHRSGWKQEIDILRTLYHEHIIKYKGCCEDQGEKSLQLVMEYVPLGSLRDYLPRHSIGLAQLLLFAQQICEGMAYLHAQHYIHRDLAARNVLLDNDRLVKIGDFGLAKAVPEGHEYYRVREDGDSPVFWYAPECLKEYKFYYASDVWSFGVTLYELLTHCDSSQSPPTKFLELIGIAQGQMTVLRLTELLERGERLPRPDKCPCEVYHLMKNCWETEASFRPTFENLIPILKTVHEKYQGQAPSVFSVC
T3 sequence (O60674 whole entry): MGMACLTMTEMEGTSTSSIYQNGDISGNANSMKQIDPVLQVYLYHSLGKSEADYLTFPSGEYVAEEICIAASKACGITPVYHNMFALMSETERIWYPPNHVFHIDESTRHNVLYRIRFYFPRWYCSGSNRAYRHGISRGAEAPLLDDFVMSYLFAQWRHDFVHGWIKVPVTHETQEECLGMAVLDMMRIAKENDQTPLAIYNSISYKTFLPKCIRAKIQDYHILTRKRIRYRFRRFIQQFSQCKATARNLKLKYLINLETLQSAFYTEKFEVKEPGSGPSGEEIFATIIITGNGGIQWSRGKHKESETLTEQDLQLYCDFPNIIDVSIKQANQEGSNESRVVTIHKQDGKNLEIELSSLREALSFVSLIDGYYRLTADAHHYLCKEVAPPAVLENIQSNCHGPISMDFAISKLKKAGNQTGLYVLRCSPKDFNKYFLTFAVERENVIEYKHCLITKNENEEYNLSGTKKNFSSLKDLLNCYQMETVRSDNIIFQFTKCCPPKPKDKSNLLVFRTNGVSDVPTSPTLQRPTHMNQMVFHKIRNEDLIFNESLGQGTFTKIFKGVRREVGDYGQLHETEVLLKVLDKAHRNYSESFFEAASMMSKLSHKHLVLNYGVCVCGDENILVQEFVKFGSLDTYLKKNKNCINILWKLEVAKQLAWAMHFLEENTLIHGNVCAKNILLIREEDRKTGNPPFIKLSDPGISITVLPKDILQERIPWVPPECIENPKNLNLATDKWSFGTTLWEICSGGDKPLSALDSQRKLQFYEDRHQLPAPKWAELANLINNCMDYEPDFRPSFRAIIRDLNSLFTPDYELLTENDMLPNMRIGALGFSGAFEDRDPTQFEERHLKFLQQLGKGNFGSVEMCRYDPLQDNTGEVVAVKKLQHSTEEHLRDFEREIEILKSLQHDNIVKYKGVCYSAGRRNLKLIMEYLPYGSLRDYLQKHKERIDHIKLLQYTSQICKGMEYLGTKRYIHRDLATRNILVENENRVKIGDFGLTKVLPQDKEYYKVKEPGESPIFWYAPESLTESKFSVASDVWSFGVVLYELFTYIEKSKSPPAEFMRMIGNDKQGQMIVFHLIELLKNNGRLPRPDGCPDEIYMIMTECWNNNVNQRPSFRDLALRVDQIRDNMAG
T4 sequence (O60674 whole entry): as above
T4 sequence (P29597 whole entry): as the sequence (P29597 whole entry) above

pIC50 [1]: > 6.60
pIC50 [2]: 7.42
SMILES: CCOc1cccc(Nc2cc(NC)n3ncc(C(=O)N[C@@H]4CCN(C)C4=O)c3n2)n1

pIC50 [3]: > 7.52
pIC50 [4]: > 7.52
SMILES: COC(=O)c1nnc(NC(=O)C2CC2)cc1Nc1cccc2c1N(C)Cc1cn(C)nc1-2

pKd [5]: > 9.70
pKd [6]: 5.30
inhibition [7]: < 50%
inhibition [8]: < 50%
pIC50 (JAK2/TYK2 [9]): > 6.30
pIC50 (JAK2/TYK2 [10]): > 6.30
SMILES: CNc1cc(Nc2cccnc2OC)nc2c(C(=O)NCC3(CO)CC3)cnn12

pIC50 [3]: > 7.52
pIC50 [4]: > 7.52
SMILES: [2H]C([2H])([2H])NC(=O)c1nnc(NC(=O)C2CC2)cc1Nc1cccc2c1N(C)Cc1cn(C)nc1-2

pIC50 [2]: 8.10
SMILES: CNc1cc(Nc2ccccc2OC)nc2c(C(=O)N[C@@H]3CCN(C)C3=O)cnn12

pKd [5]: 11.10
SMILES: [2H]C([2H])([2H])NC(=O)c1nnc(NC(=O)C2CC2)cc1Nc1cccc(-c2noc(CN3CCN(S(C)(=N)=O)CC3)n2)c1OC (centres undefined)

pIC50 [11]: > 9.00
SMILES: [2H]C([2H])([2H])NC(=O)c1nnc(NC(=O)[C@H]2CC23CC3)cc1Nc1ncc(OCCOC)cc1S(C)(=O)=O

pIC50 [3]: > 7.52
pIC50 [4]: > 7.52
SMILES: [2H]C([2H])([2H])NC(=O)c1nnc(Nc2ccc(F)cn2)cc1Nc1cccc2c1N(C)Cc1n[nH]c(=O)n1-2

pIC50 [12]: 7.33
SMILES: [2H]C([2H])([2H])NC(=O)c1nnc(NC(=O)[C@H]2CC23CC3)cc1Nc1ncccc1S(C)(=O)=O

pIC50 [3]: > 5.00
pIC50 [4]: > 5.00
SMILES: O=C(Nc1cc2c(cn1)c(=O)[nH]n2-c1ccccc1)C1CC1

pIC50 [13]: 7.09
pIC50 [14]: 8.30
pIC50 [15]: 8.15
pIC50 [16]: 10.10
pIC50 (JAK2/TYK2 [17]): 9.52
SMILES: NC(=O)c1nnc(-c2c(F)cccc2F)cc1Nc1ccc(N2CCOCC2=O)cn1

pIC50 [3]: > 7.52
pIC50 [4]: > 7.52
SMILES: [2H]C([2H])([2H])NC(=O)c1nnc(NC(=O)C2CC2)cc1Nc1cccc2c1N(C)Cc1cn(C([2H])([2H])[2H])nc1-2

pKd [5]: > 9.70
pKd [6]: 5.30
inhibition [7]: < 50%
inhibition [8]: < 50%
pIC50 (JAK2/TYK2 [9]): > 6.30
pIC50 (JAK2/TYK2 [10]): > 6.30
SMILES: CNc1cc(Nc2cccn(-c3cnc(C(C)(C)O)cn3)c2=O)nc2c(C(=O)NC3CCC3)cnn12

pKd [5]: 11.05
SMILES: [2H]C([2H])([2H])NC(=O)c1nnc(NC(=O)C2CC2)cc1Nc1cccc(-n2cc3c(n2)CN(S(C)(=N)=O)C3)c1OC (centres undefined)

pKd [18]: 11.70
pIC50 [19]: 8.77
SMILES: [2H]C([2H])([2H])n1nnc2c3cc(cc21)CO[C@@H]1CCC[C@H]1NC(=O)c1cnc2c(NC)cc(nn12)N3

pKd [5]: 11.30
pIC50 [20]: 7.08
SMILES: [2H]C([2H])([2H])NC(=O)c1nnc(Nc2ccc(N3CC(O)C3)cn2)cc1Nc1cccc(-c2ncn(C)n2)c1OC

pIC50 [13]: 7.43
pIC50 [14]: 8.05
pIC50 [15]: 7.96
pIC50 [16]: 9.70
pIC50 (JAK2/TYK2 [17]): 9.40
SMILES: NC(=O)c1nnc(-c2c(F)cccc2Cl)cc1Nc1ccc(N2CCOCC2)cc1

SMILES: [2H]C([2H])([2H])CC(=O)c1cnc(NC(=O)C2CC2)cc1Nc1nccc(-c2ncn(C([2H])([2H])[2H])n2)c1OC
pKd [6]: ≥ 7.00
pKd [18]: ≥ 8.00
pKd [21]: ≥ 6.00
pIC50 [19]: > 7.00
pIC50 [22]: < 5.00
pIC50 [23]: ≥ 6.00
